Experiment [1] has as its target T1, SGLT1 (Homo sapiens, UniProt P13866).
T1 sequence (P13866 1-664): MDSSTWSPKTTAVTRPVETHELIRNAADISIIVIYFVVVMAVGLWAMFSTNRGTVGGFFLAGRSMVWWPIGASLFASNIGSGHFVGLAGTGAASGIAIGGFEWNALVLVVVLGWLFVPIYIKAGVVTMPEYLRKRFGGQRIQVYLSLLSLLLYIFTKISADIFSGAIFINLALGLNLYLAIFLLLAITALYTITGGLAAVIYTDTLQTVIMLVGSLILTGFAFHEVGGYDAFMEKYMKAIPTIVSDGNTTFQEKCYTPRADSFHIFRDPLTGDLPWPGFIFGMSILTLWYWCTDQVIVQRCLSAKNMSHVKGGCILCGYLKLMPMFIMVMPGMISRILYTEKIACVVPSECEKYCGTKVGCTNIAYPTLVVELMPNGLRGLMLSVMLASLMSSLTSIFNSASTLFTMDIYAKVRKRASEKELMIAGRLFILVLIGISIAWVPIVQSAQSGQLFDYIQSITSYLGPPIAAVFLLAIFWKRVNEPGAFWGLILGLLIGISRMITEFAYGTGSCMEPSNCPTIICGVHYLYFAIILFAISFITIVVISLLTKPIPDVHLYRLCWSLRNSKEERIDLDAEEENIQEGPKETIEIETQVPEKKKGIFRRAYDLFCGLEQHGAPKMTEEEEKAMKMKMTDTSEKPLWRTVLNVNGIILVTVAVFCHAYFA
In words: SGLT1 inhibition assay for validation of screening hits and similar compounds (1‐NBD‐glucose uptake, CHO‐hSGLT1 cells). The format is cell-based. Also on record: activity: dose or concentration left out as unconfirmed. The following applies: for remaining activity at 5 µM / remaining activity at 50 µM: 0.5 h, concentration not given, read-out: NORMALIZED SGLT1 ACTIVITY (%); for remaining activity at 5 µM / remaining activity at 50 µM / activity: mean; for SGLT1 inhibition / inhibition at 50 µM: mean inhibition with 50 μmol/L inhibitor; for inhibition at 50 µM: read-out: SGLT1 inhibition; for activity: compound, normalized 1-NBD-glucose uptake, CHO-hSGLT1 cells.

For experiment [2], the target named is T2, hSGLT2 (Homo sapiens, UniProt P31639).
T2 sequence (P31639 1-672): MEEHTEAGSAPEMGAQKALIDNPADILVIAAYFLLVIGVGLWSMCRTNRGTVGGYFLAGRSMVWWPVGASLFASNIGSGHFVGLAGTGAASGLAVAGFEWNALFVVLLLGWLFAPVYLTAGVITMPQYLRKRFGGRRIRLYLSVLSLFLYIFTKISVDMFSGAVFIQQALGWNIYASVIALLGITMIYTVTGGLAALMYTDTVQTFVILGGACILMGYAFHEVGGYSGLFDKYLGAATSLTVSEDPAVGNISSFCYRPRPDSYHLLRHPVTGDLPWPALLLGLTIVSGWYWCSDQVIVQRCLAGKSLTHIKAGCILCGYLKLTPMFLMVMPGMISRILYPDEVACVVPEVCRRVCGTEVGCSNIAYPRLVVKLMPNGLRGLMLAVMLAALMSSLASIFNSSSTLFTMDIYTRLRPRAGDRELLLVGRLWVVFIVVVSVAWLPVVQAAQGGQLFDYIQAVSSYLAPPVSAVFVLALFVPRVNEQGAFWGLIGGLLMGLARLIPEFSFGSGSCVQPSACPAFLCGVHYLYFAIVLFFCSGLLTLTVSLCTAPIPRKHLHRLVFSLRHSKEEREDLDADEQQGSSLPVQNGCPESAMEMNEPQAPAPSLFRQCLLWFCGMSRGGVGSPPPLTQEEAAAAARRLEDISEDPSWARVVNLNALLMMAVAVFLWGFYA
In words: SGLT2 inhibition assay for validation of screening hits and similar compounds (1‐NBD‐glucose uptake, CHO‐hSGLT2 cells). Type of experiment: cell-based. On the set-up: activity: dose or concentration left out as unconfirmed. The following applies: for remaining activity at 5 µM / remaining activity at 50 µM: 0.5 h, concentration not given, read-out: NORMALIZED SGLT2 ACTIVITY (%); for remaining activity at 5 µM / remaining activity at 50 µM / activity: mean; for activity: compound, normalized 1-NBD-glucose uptake, CHO-hSGLT2 cells; for SGLT2/SGLT1 ACTIVITY RATIO 5 uM Mean: ratio of normalized SGLT2 to SGLT1 activity at 5 uM.

[3] abbreviates: mean inhibition with 50 μmol/L inhibitor.

For orientation: inhibition means the share of the control response that was lost under treatment.

Counter-ions that a name gives are not always drawn.

`c1coc(-c2nnc([C@H]3CCN(C4CCCCC4)C3)o2)c1`: in experiment [1], the remaining activity at 5 µM worked out at 122% and the remaining activity at 50 µM came to 98%. Further, in experiment [2], the remaining activity at 5 µM was determined as 98% and the remaining activity at 50 µM worked out at 89%.
Take `CC1(C)Oc2ccc3ccc(=O)oc3c2[C@H](O)[C@@H]1O` (relative stereo) [cis‐khellactone]: the SGLT1 inhibition result in experiment [1] is listed as “no SGLT inhibition”. The SGLT2 inhibition result in experiment [2] (setting [3]) is recorded as “no SGLT inhibition”.
With `CCN(CC)CC(=O)Nc1c(C)cccc1C` [Lidocaine], in experiment [1], the remaining activity at 5 µM was 90% and the remaining activity at 50 µM came out at 82%. Further, in experiment [2], the remaining activity at 5 µM was determined as 90% and the remaining activity at 50 µM amounted to 77%.
For the compound `Oc1ccc([C@H]2Oc3cc(O)cc4c3[C@@H]2c2cc(O)cc3c2[C@@H](c2cc(O)cc5c2[C@@H]4[C@H](c2ccc(O)cc2)O5)[C@H](c2ccc(O)cc2)O3)cc1` [a-Viniferin], in experiment [1], the remaining activity at 5 µM was 96% and the remaining activity at 50 µM worked out at 102%. Moreover, in experiment [2], the remaining activity at 5 µM is 104% and the remaining activity at 50 µM stood at 109%.
For `CCN(CC)CCOC(=O)C1(c2ccccc2)CCCC1` [Caramiphen, reference compound], in experiment [1], the “SGLT2/SGLT1‐50μmol/L (ratio of SGLT2 to SGLT1 activities with 50 μmol/L inhibitor)” value stood at 0.6 and the inhibition at 50 µM is 33%. At 50 µM the inhibition in experiment [2] (setting [3]) was 58%.
On to `CN1CCCCC1c1ccc(-c2cccnc2)nc1` (stereo not shown) [Anabasamine], for which, in experiment [1], the remaining activity at 5 µM came to 114% and the remaining activity at 50 µM came to 100%. In addition, in experiment [2], the remaining activity at 5 µM stood at 103% and the remaining activity at 50 µM came out at 91%.
Consider `CC[C@H]1CN2CC[C@H]1C[C@H]2[C@H](O)c1ccnc2ccc(OC)cc12` [Dihydroquinine], for which, in experiment [1], the remaining activity at 5 µM is 99% and the remaining activity at 50 µM was 63%. Moreover, in experiment [2], the remaining activity at 5 µM was 94% and the remaining activity at 50 µM amounted to 58%.
Consider `CC(=O)OC1C(OC(=O)C2(C)OC2C)c2c(ccc3ccc(=O)oc23)OC1(C)C` (stereo not shown), for which the activity in experiment [1] was determined as 102%. In experiment [2], the activity is 90% and the “SGLT2/SGLT1 ACTIVITY RATIO 5 uM Mean” value is reported as 0.9.
In the case of `COc1cc2oc(=O)ccc2cc1C[C@@H](O)C(C)(C)O` [Peucedanol], the activity was 100% in experiment [1] and 95% in experiment [2].
As for `Cc1cc(C)c(NC(=O)C2CCCCN2C2CCCCC2)c(C)c1` (stereo not shown), in experiment [1], the remaining activity at 5 µM stood at 92% and the remaining activity at 50 µM was determined as 58%. In experiment [2], the remaining activity at 5 µM amounted to 81% and the remaining activity at 50 µM came out at 52%.
For the compound `CN1CC[C@H](c2nc3ccccc3s2)C1`, in experiment [1], the remaining activity at 5 µM stood at 116% and the remaining activity at 50 µM worked out at 116%. In experiment [2], the remaining activity at 5 µM came out at 104% and the remaining activity at 50 µM came out at 112%.
For `CN1CCC(N2CC[C@H](c3nc4ccccc4o3)C2)CC1`, in experiment [1], the remaining activity at 5 µM was determined as 117% and the remaining activity at 50 µM is 114%. Further, in experiment [2], the remaining activity at 5 µM amounted to 102% and the remaining activity at 50 µM stood at 106%.
With `O[C@@H]1CCCC[C@H]1N1CCC(c2ccccc2)CC1` (racemic) [vesamicol, reference compound], in experiment [1], the remaining activity at 5 µM came out at 93% and the remaining activity at 50 µM came out at 51%. Also, the “SGLT1/2 inhibition stated in words” value in experiment [1] (SGLT1 and/or SGLT2, discussion statements) is recorded as “showed SGLT1/2 inhibition”. For the same compound, in experiment [2], the remaining activity at 5 µM turned out to be 91% and the remaining activity at 50 µM is 71%.
On to `OC[C@H]1O[C@@H](Oc2cc(O)cc(/C=C/c3ccc(O)cc3)c2)[C@H](O)[C@@H](O)[C@@H]1O` [Polydatin], for which, in experiment [1], the “SGLT2/SGLT1‐50μmol/L (ratio of SGLT2 to SGLT1 activities with 50 μmol/L inhibitor)” value came out at 1.5, the activity is 94% and the inhibition at 50 µM amounted to 46%. For the same compound, in experiment [2], the activity was 97% and the “SGLT2/SGLT1 ACTIVITY RATIO 5 uM Mean” value was determined as 1.0. This compound came in with an inhibition at 50 µM in experiment [2] (setting [3]) of 18%.
In the case of `c1ccc(C23CCN(CC2)CC3)cc1` [4-Phenylquinuclidine], in experiment [1], the remaining activity at 5 µM came out at 96% and the remaining activity at 50 µM amounted to 72%. In experiment [2], the remaining activity at 5 µM is 81% and the remaining activity at 50 µM came out at 60%.
As to `CCN(CC)CCC(O)(c1ccccc1)C1CCCCC1` (stereo not shown), the activity in experiment [1] was 72%. For the same compound, in experiment [2], the activity amounted to 69% and the “SGLT2/SGLT1 ACTIVITY RATIO 5 uM Mean” value is listed as 0.952.
For `Cc1nc(-c2cccs2)cc([C@H]2CN3CC[C@H]2C[C@@H]3CO)n1`, the remaining activity at 5 µM in experiment [1] came to 120%; in experiment [2], 110%. The remaining activity at 50 µM is 115% in experiment [1] and 103% in experiment [2].
With `Oc1c(Br)cc(Br)c2cccnc12` [Broxyquinoline], the remaining activity at 5 µM in experiment [1] was 110%; in experiment [2], 100%. Further, the remaining activity at 50 µM is 69% in experiment [1] and 90% in experiment [2].
On to `CN1CCc2cc3c(cc2C2OC(O)c4c(ccc5c4OCO5)C21)OCO3` (stereo not shown) [(Iso)rheagenine], for which the activity in experiment [1] turned out to be 114%; in experiment [2], 97%. For the same compound, the “SGLT2/SGLT1 ACTIVITY RATIO 5 uM Mean” value in experiment [2] worked out at 0.857.
With `OC(CCN1CCCC1)(c1ccccc1)C1CCCCC1` (stereo not shown) [Procyclidine HCl], the activity in experiment [1] was 74%; in experiment [2] it was 76%.
With `COc1ccc2ccc(=O)oc2c1C(OC(C)=O)C(=O)C(C)C` (stereo not shown) [Hainanmurpanin], the activity in experiment [1] worked out at 110%. Also, in experiment [2], the activity amounted to 108% and the “SGLT2/SGLT1 ACTIVITY RATIO 5 uM Mean” value is reported as 1.0.
On to `CC(C)(C)C(=O)C(Oc1ccc(Cl)cc1)n1cncn1` (stereo not shown) [Triadimefon], for which, in experiment [1], the remaining activity at 5 µM came to 101% and the remaining activity at 50 µM was 58%. Also, in experiment [2], the remaining activity at 5 µM worked out at 91% and the remaining activity at 50 µM came to 76%.
Turning to `Cn1c(CO[C@H]2CN(Cc3ccncc3F)C[C@H]2F)nc2ccccc21`, in experiment [1], the remaining activity at 5 µM turned out to be 115% and the remaining activity at 50 µM turned out to be 115%. In addition, in experiment [2], the remaining activity at 5 µM came to 99% and the remaining activity at 50 µM stood at 99%.
For the compound `Oc1c(Cl)cc(Cl)c2cccnc12`, the remaining activity at 5 µM is 115% in experiment [1] and 114% in experiment [2]. Besides, the remaining activity at 50 µM in experiment [1] worked out at 57%; in experiment [2], 91%.
With `Fc1ccc(-c2noc([C@@H]3CCCN3Cc3ccccc3F)n2)nc1`, in experiment [1], the remaining activity at 5 µM stood at 125% and the remaining activity at 50 µM amounted to 105%. In experiment [2], the remaining activity at 5 µM was 110% and the remaining activity at 50 µM is 91%.
As for `CC(=O)OC(C)(C)C1Cc2cc3ccc(=O)oc3cc2O1` (stereo not shown), the activity in experiment [1] was 106%. Besides, in experiment [2], the activity was determined as 101% and the “SGLT2/SGLT1 ACTIVITY RATIO 5 uM Mean” value is 1.0.
For `CN1CCC(C#N)(c2ccccc2)CC1`, in experiment [1], the remaining activity at 5 µM was determined as 109% and the remaining activity at 50 µM was found to be 105%. In experiment [2], the remaining activity at 5 µM was determined as 105% and the remaining activity at 50 µM is 102%.
`CN1CCN2c3ncccc3Cc3ccccc3C2C1` (stereo not shown) [Mirtazapine]: the remaining activity at 5 µM was 114% in experiment [1] and 113% in experiment [2]. Moreover, the remaining activity at 50 µM in experiment [1] was 105%; in experiment [2] it was 108%.
Consider `Oc1ccc(C=Cc2cc(O)cc3c2C(c2cc(O)cc(O)c2)C(c2ccc(O)cc2)O3)cc1` (stereo not drawn) [(−)‐ε‐viniferin], for which, in experiment [1], the “SGLT2/SGLT1‐50μmol/L (ratio of SGLT2 to SGLT1 activities with 50 μmol/L inhibitor)” value is recorded as 0.6 and the SGLT1 inhibition result is “did not inhibit SGLT1”. This compound had an inhibition at 50 µM in experiment [2] (setting [3]) of 35%.

Values taken from article PMC6664820, “Novel natural and synthetic inhibitors of solute carriers SGLT1 and SGLT2” (Pharmacology Research & Perspectives, 2019).
